Among the data in patent US9821002B2, “Method for alleviating radiation injury with isorhamnetin-3-O-β-D-glucoside” (Sinotai Oncology Associate., Ltd., priority 2015, dated 2017) are Apoptosis percentage values, retold here.

For this assay, the system named is NMuMG cells. As to the kind of experiment: Apoptosis assay (FITC Annexin V/PI) after X-ray irradiation. The class given is cell-based, mouse. Particulars: 2 h pretreatment, X-ray 15 Gy, 72 hours, mean ± SEM. An excerpt:
Four groups of BNL CL.2 cells (i.e., a normal control group referred to as Normal Control Group 1-A, an X-ray control group referred to as X-Ray Control Group 1-A, and two experimental groups referred to as Experimental Groups 1-A to 2-A), and six groups of NMuMG cells (i.e., a normal control group referred to as Normal Control Group 1-B, an X-ray control group referred to as X-Ray Control Group 1-B, two isorhamnetin groups referred to as Isorhamnetin Groups 1 to 2, and two experimental groups referred to as Experimental Groups 1-B to 2-B), were prepared based on the procedure set forth in “Source and cultivation of cell lines” of “Experimental materials”. BNL CL.2 cells in each group were cultivated using 5 mL of a corresponding medium shown in Table 1 and a 6-cm Petri dish in an amount of 2×10^5 cells per dish. Likewise, NMuMG cells in each group were cultivated using 5 mL of a corresponding medium shown in Table 1 and a 6-cm Petri dish in an amount of 2.5×10^5 cells per dish. The cultivation was conducted in an incubator (37° C., 5% CO2) for 24 hours.
Subsequently, medium was replaced with fresh medium. The obtained cultures in Experimental Groups 1-A, 1-B, 2-A, and 2-B were pretreated with the stock solution of isorhamnetin-3-O-β-D-glucoside, and the obtained cultures in Isorhamnetin Groups 1 to 2 were pretreated with the stock solution of isorhamnetin.
The culture in each group was then cultivated in an incubator (37° C., 5% CO2) for two hours. The resultant culture was used for the following experiments in sections B to D.
The cultures in X-Ray Control Group 1-A, X-Ray Control Group 1-B, Isorhamnetin Group 1, Isorhamnetin Group 2, Experimental Group 1-A, Experimental Group 1-B, Experimental Group 2-A, and Experimental Group 2-B, prepared according to section A of “Experimental procedures” in this example, were subjected to X-ray irradiation using a linear accelerator at a dose of 15 Gy. The cultures in Normal Control Groups 1-A and 1-B received no X-ray irradiation treatment. The culture of BNL CL.2 cells in each group was cultivated using a 6-cm Petri dish in an incubator (37° C., 5% CO2) for 96 hours, and the culture of NMuMG cells in each group was cultivated using a 6-cm Petri dish in an incubator (37° C., 5% CO2) for 72 hours. 1 mL of trypsin-EDTA was added to the culture in each group so as to detach the cells from the bottom of the Petri dish. Following this, 1 mL of a fresh medium (corresponding to the medium described in Table 1) was added to neutralize the activity of the trypsin, and the resultant cell suspension was transferred to a centrifuge tube with a pipette, followed by centrifugation at 1200 rpm for three minutes. The supernatant was removed, and the cell pellet thus obtained was washed once with cold PBS (pH 7.4), followed by centrifugation at 1200 rpm for 3 minutes. The supernatant was removed, and 100 μL of cold Annexin V binding buffer (BD Pharmingen™) was added to sufficiently re-suspend the cell pellet thereby obtaining a cell suspension having a cell concentration of 1.0×10^6 cells/mL. Afterward, 5 μL of FITC Annexin V (BD Pharmingen™) and 5 μL of propidium iodide (PI) staining solution (BD Pharmingen™) were added to the obtained cell suspension, followed by mixing evenly and standing in the dark at 4° C. for 30 minutes so as to obtain stained cells.
Subsequently, the stained cells were analyzed using BD Accuri™ C6 flow cytometry, in which cells that could be stained with FITC Annexin V but not with PI (i.e., FITC Annexin V positive and PI negative) represented cells that were induced with early apoptosis; cells stained with both FITC Annexin V and PI (i.e., FITC Annexin V positive and PI positive) represented cells that were induced with late apoptosis; and cells that could not be stained with FITC Annexin V and PI (i.e., FITC Annexin V negative and PI negative) represented viable cells. The number of stained cells was calculated using BD Accuri™ C6 software. […]

`COc1cc(-c2oc3cc(O)cc(O)c3c(=O)c2O)ccc1O` [Isorhamnetin]: the Apoptosis percentage came to 22.87 ± 1.33% (15 μM) and 22.13 ± 0.29% (30 μM).
